{
  "source": "patent US12194140B2",
  "about": "“Compositions for topical treatment of microbial infections” (Hennepin Life Sciences, priority 2012, dated 2025)",
  "key": {"[1]": {"test_system": "coagulase-negative staphylococci", "assay": "Decolonization of anterior nares", "format": "in vivo, human", "conditions": "5% w/v GML in non-aqueous gel"}, "Neisseria gonorrhoeae": {"test_system": "Neisseria gonorrhoeae", "assay": "Spectrum of antibacterial activity of GML", "format": "cell-based", "conditions": "optimal growth conditions; 1 strain tested"}, "S. pyogenes": {"test_system": "S. pyogenes", "assay": "Bactericidal activity of GML versus lauric acid", "format": "cell-based", "conditions": "24 hours, 37° C."}, "Streptococcus agalactiae [2]": {"test_system": "Streptococcus agalactiae", "assay": "Spectrum of antibacterial activity of GML", "format": "cell-based", "conditions": "optimal growth conditions; 3 strains tested"}, "Proteus vulgaris": {"test_system": "Proteus vulgaris", "assay": "Spectrum of antibacterial activity of GML", "format": "cell-based", "conditions": "optimal growth conditions; 1 strain tested"}, "S. aureus MN8": {"test_system": "S. aureus MN8", "assay": "Bactericidal activity of GML versus lauric acid", "format": "cell-based", "conditions": "24 hours, 37° C.; bactericidal = at least 3 log reduction"}, "Bacteroides fragilis": {"test_system": "Bacteroides fragilis", "assay": "Spectrum of antibacterial activity of GML", "format": "cell-based", "conditions": "optimal growth conditions; 2 strains tested"}, "Streptococcus agalactiae [3]": {"test_system": "Streptococcus agalactiae", "assay": "GML in vegetable oil, growth in Todd Hewitt broth (CFU/mL)", "format": "cell-based", "conditions": "GML in olive, palm or corn oil (all 3); 18 hours, 37° C."}, "S. aureus strain MN8": {"test_system": "S. aureus strain MN8", "assay": "Decolonization of contaminated surgical incision sites", "format": "in vivo, New Zealand white rabbits", "conditions": "GML 5% w/v non-aqueous gel swabbed"}, "[4]": {"test_system": "Haemophilus influenzae Non-typable", "assay": "Spectrum of antibacterial activity of GML", "format": "cell-based", "conditions": "optimal growth conditions; 2 strains tested"}, "Enterobacter aerogenes": {"test_system": "Enterobacter aerogenes", "assay": "Spectrum of antibacterial activity of GML", "format": "cell-based", "conditions": "optimal growth conditions; 1 strain tested"}, "S. aureus biofilm": {"test_system": "S. aureus biofilm", "assay": "Treatment of previously formed biofilms", "format": "cell-based", "conditions": "48 hour biofilm; 500 μg/mL GML for 60 minutes at 37° C."}, "[5]": {"test_system": "Mycobacterium tuberculosis", "format": "cell-based"}, "E. coli (Watson strain)": {"test_system": "E. coli (Watson strain)", "assay": "GML and EDTA on the growth of E. coli", "format": "cell-based", "conditions": "24 hours; EDTA 0.05 M to 0.00005 M; GML 100 μg/mL", "description": "E. coli (Watson strain) was adjusted to I.2×10^7/mL in Todd Hewitt media. […] Cultures were incubated with shaking (200 RPM) for 24 hours, at which time samples were removed for plate counting. To further assess the combined effects of GML and EDTA, the experiment was carried out as above, and the relative effects on the growth of E. coli of EDTA alone or the combination of GML and EDTA were assessed in direct comparison to GML alone."}, "Salmonella minnesota": {"test_system": "Salmonella minnesota", "assay": "Spectrum of antibacterial activity of GML", "format": "cell-based", "conditions": "optimal growth conditions; 1 strain tested"}, "Streptococcus sanguinis": {"test_system": "Streptococcus sanguinis", "assay": "Spectrum of antibacterial activity of GML", "format": "cell-based", "conditions": "optimal growth conditions; 1 strain tested"}, "Group G Streptococcus": {"test_system": "Group G Streptococcus", "assay": "Spectrum of antibacterial activity of GML", "format": "cell-based", "conditions": "optimal growth conditions; 1 strain tested"}, "Gardnerella vaginalis": {"test_system": "Gardnerella vaginalis", "assay": "Spectrum of antibacterial activity of GML", "format": "cell-based", "conditions": "optimal growth conditions; 2 strains tested"}, "[6]": {"test_system": "Bordetella bronchiseptica", "assay": "Spectrum of antibacterial activity of GML", "format": "cell-based", "conditions": "optimal growth conditions; 1 strain tested"}, "[7]": {"test_system": "Staphylococcus aureus MNPE (methicillin sensitive) and MW2 (methicillin resistant)", "assay": "GML in vegetable oil, growth in Todd Hewitt broth (CFU/mL)", "format": "cell-based", "conditions": "both strains; GML in olive, palm or corn oil (all 3); 18 hours, 37° C."}, "Shigella sonnei": {"test_system": "Shigella sonnei", "format": "cell-based"}, "Streptococcus pyogenes": {"test_system": "Streptococcus pyogenes", "assay": "Spectrum of antibacterial activity of GML", "format": "cell-based", "conditions": "optimal growth conditions; 4 strains tested"}, "Fusobacterium species": {"test_system": "Fusobacterium species", "assay": "Spectrum of antibacterial activity of GML", "format": "cell-based", "conditions": "optimal growth conditions; 1 strain tested"}, "S. aureus (strain MN8)": {"test_system": "S. aureus (strain MN8)", "assay": "Effect of non-aqueous gel on antimicrobial activity of GML", "format": "cell-based", "conditions": "GML alone in Todd Hewitt broth; 24 hours"}, "Burkholderia cenocepacia": {"test_system": "Burkholderia cenocepacia", "assay": "Spectrum of antibacterial activity of GML", "format": "cell-based", "conditions": "optimal growth conditions; 1 strain tested"}, "S. aureus 128 (TSST-1)": {"test_system": "S. aureus 128 (TSST-1)", "format": "cell-based"}, "Candida albicans": {"test_system": "Candida albicans", "assay": "GML in vegetable oil, growth in Todd Hewitt broth (CFU/mL)", "format": "cell-based", "conditions": "GML in olive, palm or corn oil (all 3); 18 hours, 37° C."}, "[8]": {"test_system": "P. aeruginosa (strain PAO 1)", "assay": "Effect of pH on GML activity", "format": "cell-based, Pseudomonas aeruginosa", "conditions": "GML 10 μg/mL to 5000 μg/mL, 24 hours", "description": "The effect of GML at a range of concentrations and in the presence of a range of pH levels on the growth of Pseudomonas aeruginosa was also determined. P. aeruginosa (strain PAO 1) was inoculated in Todd Hewitt broth at 5.7×10^6/mL. GML was added to cultures at a range of concentrations from 10 μg/mL to 5000 μg/mL, and the pH was adjusted to 5.0, 6.0, or 7.0. CFU/mL was determined after 24 hours of incubation. […] A pH of 5.0 in the absence of GML was somewhat inhibitory for the growth of P. aeruginosa."}, "Pasteurella multocida": {"test_system": "Pasteurella multocida", "assay": "Spectrum of antibacterial activity of GML", "format": "cell-based", "conditions": "optimal growth conditions; 1 strain tested"}},
  "data": [
    {"substance": "Glycerol monolaurate [GML]", "values": [
      {"measurement": "coagulase-negative staphylococcal counts in both nares after treatment", "setting": "[1]; swab, three subjects, 4 hours or more up to 24 hour", "value": "significantly (p<0.05) reduced"},
      {"measurement": "coagulase-negative staphylococci in right nare after 3 days", "setting": "[1]; one subject, initially 560", "value": 8, "unit": "CFU/mL"},
      {"measurement": "coagulase-negative staphylococci in left nare after 3 days", "setting": "[1]; one subject, initially 880", "value": 0, "unit": "CFU/mL"},
      {"measurement": "Average Bactericidal Concentration of GML", "setting": "Neisseria gonorrhoeae", "value": 20, "unit": "µg/mL"},
      {"measurement": "fold more bactericidal for S. pyogenes than for S. aureus", "setting": "S. pyogenes", "value": 5, "unit": "fold"},
      {"measurement": "fold lower bactericidal concentration than lauric acid", "setting": "S. pyogenes; 7% CO2, bactericidal = at least 3 log reduction", "value": 500, "unit": "fold"},
      {"measurement": "Average Bactericidal Concentration of GML", "setting": "Streptococcus agalactiae [2]", "value": 30, "unit": "µg/mL"},
      {"measurement": "Average Bactericidal Concentration of GML", "setting": "Proteus vulgaris", "value": "Not Susceptible"},
      {"measurement": "fold lower bactericidal concentration than lauric acid", "setting": "S. aureus MN8", "value": 200, "unit": "fold"},
      {"measurement": "Average Bactericidal Concentration of GML", "setting": "Bacteroides fragilis", "value": 50, "unit": "µg/mL"},
      {"measurement": "GML concentration at which growth was completely or nearly completely inhibited", "setting": "Streptococcus agalactiae [3]", "value": "≥ 20", "unit": "µg/mL"},
      {"measurement": "S. aureus CFU/mL at surgical incision sites", "setting": "S. aureus strain MN8; 24 hour time-point, PBS control 8.8 log CFU/mL", "value": "no CPUs were detectable"},
      {"measurement": "inflammation at the surgical site (redness)", "setting": "S. aureus strain MN8; 24 hours, versus PBS", "value": "less inflammation"},
      {"measurement": "Average Bactericidal Concentration of GML", "setting": "[4]", "value": 50, "unit": "µg/mL"},
      {"measurement": "Average Bactericidal Concentration of GML", "setting": "Enterobacter aerogenes", "value": "Not Susceptible"},
      {"measurement": "bactericidal activity on previously formed biofilm (CFU/mL)", "setting": "S. aureus biofilm", "value": "killed"},
      {"measurement": "biofilm material attached to the wells (crystal violet staining)", "setting": "S. aureus biofilm", "value": "nearly completely removed biofilm material"},
      {"measurement": "Average Bactericidal Concentration of GML", "setting": "[5]", "value": 100, "unit": "µg/mL"},
      {"measurement": "anti-bacterial activity on growth of E. coli (CFU/mL)", "setting": "E. coli (Watson strain)", "value": "did not exhibit any bactericidal activity"},
      {"measurement": "Average Bactericidal Concentration of GML", "setting": "Salmonella minnesota", "value": "Not Susceptible"},
      {"measurement": "Average Bactericidal Concentration of GML", "setting": "Streptococcus sanguinis", "value": 50, "unit": "µg/mL"},
      {"measurement": "Average Bactericidal Concentration of GML", "setting": "Group G Streptococcus", "value": 50, "unit": "µg/mL"},
      {"measurement": "Average Bactericidal Concentration of GML", "setting": "Gardnerella vaginalis", "value": 10, "unit": "µg/mL"},
      {"measurement": "Average Bactericidal Concentration of GML", "setting": "[6]", "value": 1, "unit": "µg/mL"},
      {"measurement": "GML concentration at which growth was inhibited", "setting": "[7]", "value": 100, "unit": "µg/mL"},
      {"measurement": "Average Bactericidal Concentration of GML", "setting": "Shigella sonnei", "value": "Not Susceptible"},
      {"measurement": "Average Bactericidal Concentration of GML", "setting": "Streptococcus pyogenes", "value": 30, "unit": "µg/mL"},
      {"measurement": "Average Bactericidal Concentration of GML", "setting": "Fusobacterium species", "value": 50, "unit": "µg/mL"},
      {"measurement": "GML concentration inhibiting growth (CFU/mL)", "setting": "S. aureus (strain MN8)", "value": "≥ 100", "unit": "µg/mL"},
      {"measurement": "Average Bactericidal Concentration of GML", "setting": "Burkholderia cenocepacia", "value": 500, "unit": "µg/mL"},
      {"measurement": "TSST-1 in tampon sacs (Western immunoblot)", "setting": "S. aureus 128 (TSST-1)", "value": "not detected"},
      {"measurement": "GML concentration at which growth was inhibited", "setting": "Candida albicans", "value": 100, "unit": "µg/mL"},
      {"measurement": "effect on growth (CFU/mL)", "setting": "[8]; pH 5.0", "value": "further inhibited P. aeruginosa growth in a dose-dependent manner"},
      {"measurement": "effect on growth (CFU/mL)", "setting": "[8]; pH 6.0 or 7.0", "value": "no concentration of GML was inhibitory"},
      {"measurement": "Average Bactericidal Concentration of GML", "setting": "Pasteurella multocida", "value": 500, "unit": "µg/mL"}
    ]}
  ]
}
